Source: the METLIN SMRT retention time set (Domingo-Almenara et al. 2019)

Assay: gradient 5% acetonitrile 3 min, to 50% in 2 min, to 85% in 15 min, held 3 min, 100 µL/min
Conditions: column: Zorbax Extend-C18 2.1 x 50 mm; eluents: water / acetonitrile, 0.1% formic acid
Outline: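 Values are retention times taken from adduct peaks that software picked and an analyst inspected. The pure standards were run as mixtures of ~100 molecules on HPLC linked to a quadrupole time-of-flight mass spectrometer, in positive and negative ionization mode. A Zorbax Extend-C18 column (2.1 × 50 mm, 1.8 μm) was used at 100 μL/min with water and acetonitrile, each including 0.1% formic acid.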

Compound	RP-LC retention time
O=C(CN1CCCCC1c1nc(-c2cccc(F)c2)no1)NCc1cccs1 (configuration not stated)	1060 s
COc1ccc(CNC(=O)C2CCCN(c3nccnc3Sc3ccccc3)C2)c(OC)c1 (configuration not stated)	1020 s
COc1ccc(C(=O)NC(c2ccccc2)c2nnc(N3CCCC3)o2)cc1 (configuration not stated)	756 s
CCn1c(=O)sc2cc(S(=O)(=O)N3CCC(C(=O)Nc4ccc(C)cc4C)CC3)ccc21	932 s
CC(C)n1c(=O)c2ccccc2n(Cc2nc(-c3cccc(C(F)(F)F)c3)no2)c1=O	1230 s
CCc1cc(C(c2cccc(F)c2)N2CCN(C)CC2)c(NC(=O)c2ccccc2)s1 (configuration not stated)	622 s
CCc1nc(-c2ccc(S(=O)(=O)N3CCC(C(=O)NCc4cccs4)CC3)cc2)no1	917 s
CCOc1nccnc1N1CCC(NS(=O)(=O)C2CC2)C1 (configuration not stated)	1230 s
O=C(NCc1ccc(F)cc1)C1CCN(S(=O)(=O)c2ccc3[nH]c(=O)sc3c2)CC1	742 s
Cc1ccc(Cl)cc1NC(=O)N1CCC(n2cnc3c(C)cccc3c2=O)CC1	911 s
CCOC(=O)c1cccc(N2C=C(C#N)S(=O)(=O)c3ccc(Cl)cc32)c1	996 s
CCN1C(=O)c2cccnc2Sc2cc(NC(=O)COc3ccc(F)c(F)c3)ccc21	882 s
Cc1ccc2[nH]cc(CCN3CC(C(=O)Nc4cccc(F)c4)CC3=O)c2c1 (configuration not stated)	842 s
CCn1ccc2c(cc(C(=O)Nc3cc(F)ccc3F)n2C)c1=O	754 s
CC(C)C(NC(=O)c1cccc(C#N)c1)C(=O)N1CCN(c2ccccn2)CC1 (configuration not stated)	620 s
O=C(C1CC(=O)N(c2ccc(F)cc2)C1)N1CCN(CCn2cccn2)CC1 (configuration not stated)	556 s
O=c1n(Cc2ccccc2)nc2ccc(S(=O)(=O)N3CCOCC3)cn12	778 s
CC(O)(CNC(=O)c1cnc2ccccc2n1)c1ccco1 (configuration not stated)	675 s
CC1CCN(c2cnn(CC(=O)Nc3cccc(C(C)C)c3)c(=O)c2Cl)CC1	1100 s
Cc1ccc(-c2c(C(=O)NCC3CCCO3)nc3ccccn23)cc1 (configuration not stated)	730 s
Cc1nn(C)c(C)c1S(=O)(=O)N1CCC(c2noc(-c3cccnc3)n2)C1 (configuration not stated)	662 s
COc1ccc2c(c1)C1(CCN(S(=O)(=O)c3cccc(C)c3)C1)C(=O)N2C (configuration not stated)	941 s

Compound	RP-LC retention time
CSc1ccc(CNC(=O)c2nnc(-c3ccc(S(=O)(=O)N(C)C)cc3)o2)cc1	889 s
CCCN1CCn2cc(S(=O)(=O)Nc3ccccc3OC)cc2C1=O	733 s
COc1cccc(-c2nnc(Cc3nc(-c4ccc(SC)cc4)no3)o2)c1	1050 s
O=C(NCCC1=CCCCC1)C1CCCN(c2nc3ccsc3c(=O)n2Cc2ccc(F)cc2)C1 (configuration not stated)	1090 s
Cc1cc(C)c2c(-n3cccc3)nn(CC(=O)NCCN(C)C)c2n1	630 s
O=C(c1ccc2[nH]ccc2c1)N1CCN(c2cc(-c3ccccc3)[nH]n2)CC1	728 s
CCOC(=O)c1nc(NCCN(C)Cc2ccccc2)c2c(C)noc2n1	623 s
Clc1ccc(Nc2c(-c3ccc(Cl)cc3)nc3ccc(Cl)cn23)cc1	1090 s
O=C(NC1COc2ccccc2C1)N1CCN(c2ccccn2)CC1 (configuration not stated)	616 s
CC1(C(=O)NCc2ccc(F)cc2)CCCN(C(=O)Nc2ccccc2Cl)C1 (configuration not stated)	941 s
CCN1CCN(c2cc(C(=O)O)c3cc(NS(=O)(=O)c4ccc(C)cc4C)ccc3n2)CC1	638 s
COc1ccc(NC(=O)N2[C@H]3CC[C@@H]2c2cnc(-c4ccc(F)cc4)nc2C3)cc1OC	875 s
O=C([C@@H]1C[C@H](F)CN1S(=O)(=O)c1cc(F)cc(F)c1)N1CCc2ccccc2C1	961 s
CCOc1ccc(-c2csc3c(=O)n(Cc4ccncc4)cnc23)cc1OCC	693 s
CN1CCC(=C2c3ccccc3C(O)c3ccccc32)CC1 (configuration not stated)	665 s
COc1ccc(NC(=O)c2[nH]c3cc(C)sc3c2CN2CCOCC2)cc1OC	635 s
Oc1ccccc1-c1nc2ccc(Cl)cn2c1Nc1ccc(Cl)cc1	1090 s
CN(C)CCCNc1oc(-c2ccccc2F)nc1S(=O)(=O)c1ccccc1	666 s
COc1cccc(-c2ccc(=O)n(CCc3nc(-c4cc(OC)cc(OC)c4)no3)n2)c1	955 s
O=C(NCC1CC(=O)N(Cc2ccc(F)cc2)C1)Nc1cccs1 (configuration not stated)	668 s
COc1cccc(NC(=O)Cc2c(C)nn(-c3nc(-c4ccc(Cl)cc4)cs3)c2C)c1	1230 s
CC1=C(c2ccc(C)c(C)c2)S(=O)(=O)N=C1N1CCCN(C(=O)NCCC(C)C)CC1	906 s

Compound	RP-LC retention time
O=C([C@@H]1C[C@H](F)CN1C(=O)Nc1ccc(C(F)(F)F)cc1)N1CCCCC1	821 s
COc1ccc(OC)c(CNC(=O)c2c(C)sc3ccn(CC(C)C)c(=O)c23)c1	975 s
O=C(c1cc2c(s1)-c1ccccc1S(=O)(=O)C2)N1CCN(c2ccccn2)CC1	605 s
O=c1c(S(=O)(=O)N2CCCC2)cccn1Cc1cccc(F)c1	823 s
CCC1Oc2ccc(S(=O)(=O)N3CCC(C(=O)Nc4cccc(C)c4)CC3)cc2NC1=O (configuration not stated)	814 s
C=CCNC(=O)c1nnn(Cc2ccc(Cl)cc2)c1-n1cccc1	954 s
Cc1ccc(NC(=O)c2[nH]c3cc(C)sc3c2CN2CCOCC2)c(F)c1	728 s
COc1cc(NS(=O)(=O)c2c(C)sc(C)c2-c2cc(C(F)(F)F)on2)cc(OC)c1	1140 s
Clc1ccccc1-c1noc(Cc2nc(-c3ccccc3)cs2)n1	1180 s
COc1cc(NC(=O)C2CCCN(c3nc(C)nc4oc(C)c(C)c34)C2)cc(OC)c1 (configuration not stated)	915 s
O=C(c1ccco1)N1CCC(c2nc(-c3ccccc3)no2)C1 (configuration not stated)	822 s
COc1cn(-c2ccc(F)cc2)nc1C(=O)NCCC1=CCCCC1	942 s
COC(=O)CNC(=O)Nc1ccc2nc(-c3ccc(F)cc3)cc(OC)c2c1	624 s
Cc1ccc(CNC(=O)c2cn(C)nc2S(=O)(=O)N2CCSCC2)cc1	902 s
CCOC(=O)c1c(C)[nH]c(C(=O)N2CCCC(C(=O)NCCCN3CCCC3)C2)c1C (configuration not stated)	589 s
COc1ccc(OC)c(NC(=O)C2(CCO)CCN(c3ncccn3)C2)c1 (configuration not stated)	631 s
COc1ccc(-c2noc(-c3nc(-c4cccnc4)no3)n2)cc1	966 s
CCS(=O)(=O)N(C1CC1)C1CCOC2(CCN(C(=O)C3CC3)CC2)C1 (configuration not stated)	710 s
CCc1nc(-c2csc(S(=O)(=O)N3CCC(C(=O)NCC4CCCO4)CC3)c2)no1 (configuration not stated)	764 s
COc1cccc(Nc2c(-c3ccc(OC)c(OC)c3)nc3cnccn23)c1	794 s
COc1ccc(-c2nn3c(-c4ccc5ccccc5n4)nnc3s2)cc1	975 s
COc1ccccc1CN1CC(=O)N(c2cccc(C)c2)[C@@H]2CS(=O)(=O)C[C@@H]21	819 s

Compound	RP-LC retention time
Cc1ccc(NC(=O)N2CCC(c3nc(CCNC(=O)C(C)C)cs3)CC2)cc1	750 s
Cc1nc(-c2ccc3c(c2)CCN3C(=O)Cc2cccc(F)c2)cs1	991 s
CCC(=O)N1CCCn2nc(-c3cccc(F)c3)cc2C1	735 s
Cc1sc(-c2cc(C(F)(F)F)[nH]n2)cc1S(=O)(=O)N1CCN(c2ccc(Cl)cc2)CC1	1180 s
CCN(CCN(C)C)c1ccc(C(=O)O)cc1NS(=O)(=O)c1ccc(Br)cc1	648 s
CCN(CC)CCNC(=O)c1nc(-c2oc3ccc(C)cc3c2C)no1	695 s
COC(=O)c1ccc(NC(=O)Cn2ccc3ccc(-c4nnc(C)o4)cc32)cc1	776 s
Cc1cccc(OCCc2noc(C3CCCN3)n2)c1 (configuration not stated)	645 s
Cn1c(C2CCN(C(=O)c3cc4c(s3)CCCC4)C2)nc2ccncc21 (configuration not stated)	562 s
Cn1cnc(S(=O)(=O)N2CCC(C(=O)NCc3ccccc3)CC2)c1	660 s
CCCN1C(=O)COc2ccc(-c3noc(-c4ccc(N(C)C)cc4)n3)cc21	1280 s
CCOC(=O)c1c(C)c(CCC(=O)NCc2ccc3c(c2)OCO3)n(C)c1C	836 s
CCOC(=O)C1=CN(Cc2ccccc2)C=C(C(=O)OCC)C1c1ccccc1	1130 s
CN1CCC(NC(=O)c2n[nH]c3c2CN(C(=O)c2ccccc2Br)CC3)CC1	595 s
Cc1ncsc1CN1CC(Cn2c(C)cnc2-c2ccncc2)C1	818 s
Cc1cc(Cl)ccc1-n1ncc2c(N3CCN(C)CC3)ncnc21	633 s
Cc1ccc(C)c(N2CCN(c3ccnc(SCC(=O)Nc4c(C)cccc4C)n3)CC2)c1	1010 s
COCC(=O)Nc1ccc2nc(N3CCN(Cc4ccccc4OC)CC3)cc(C(=O)O)c2c1	573 s
Cc1cc(C)n(-c2nc(CC(=O)N3CCN(c4ccccc4)CC3)cs2)n1	947 s
COC(=O)c1cn(Cc2c(F)cccc2Cl)nc1S(=O)(=O)N(C)c1ccccc1	718 s
O=C(Nc1cccc([N+](=O)[O-])c1)NC1CCS(=O)(=O)C1 (configuration not stated)	626 s
